For assay [1], the target named is T1, BTK (Homo sapiens, UniProt Q06187).
T1 construct: purchased Promega Corporation
Description: ADP-Glo BTK Kinase enzyme system inhibitory activity. Particulars: ADP-Glo kit (Promega), ATP 10 uM, duplicate; read-out: inhibitory activity against BTK (BTK IC50). In kind it is biochemical. The method, then:
(§1) Inhibitory activities against BTK and ITK were measured for the compound represented by Chemical Formula 1 prepared in the above Examples as follows.
The inhibitory activities against BTK were evaluated using ‘ADP-GIo™+BTK Kinase enzyme system’ kit (Promega Corporation). In a white 96-well plate, 10 ? of BTK enzyme prepared so as to have a final concentration of 10 ng/ ? was mixed with 5 ? of compounds having a final concentration of 1 uM in the case of evaluating a single concentration of compound and a concentration of 1000, 200, 40, 8, 1.6 and 0.32 nM in the case of IC50 evaluation, and then reacted at room temperature for 15 minutes. 5 ? of substrate and 5 ? of ATP prepared so as to have a final concentration of 10 uM were added to the plate on which reactions were completed, and then allowed to react at 30° C. for 1 hour. All wells of the plate on which reactions were completed were treated with 25 ? of ADP-Glo™ reagent and allowed to react at 30° C. for 40 minutes. […] For the plate on which all reactions were completed, luminescence was measured and the results were calculated. Evaluation was carried out in duplicate, and negative control and positive control were calculated depending on whether or not the enzyme was added without treatment of the compound. The IC50 was calculated based on the calculated values.

The target in assay [2] is T2, ITK (Homo sapiens, UniProt Q08881).
T2 construct: purchased Promega Corporation
T2 sequence (Q08881 1-620): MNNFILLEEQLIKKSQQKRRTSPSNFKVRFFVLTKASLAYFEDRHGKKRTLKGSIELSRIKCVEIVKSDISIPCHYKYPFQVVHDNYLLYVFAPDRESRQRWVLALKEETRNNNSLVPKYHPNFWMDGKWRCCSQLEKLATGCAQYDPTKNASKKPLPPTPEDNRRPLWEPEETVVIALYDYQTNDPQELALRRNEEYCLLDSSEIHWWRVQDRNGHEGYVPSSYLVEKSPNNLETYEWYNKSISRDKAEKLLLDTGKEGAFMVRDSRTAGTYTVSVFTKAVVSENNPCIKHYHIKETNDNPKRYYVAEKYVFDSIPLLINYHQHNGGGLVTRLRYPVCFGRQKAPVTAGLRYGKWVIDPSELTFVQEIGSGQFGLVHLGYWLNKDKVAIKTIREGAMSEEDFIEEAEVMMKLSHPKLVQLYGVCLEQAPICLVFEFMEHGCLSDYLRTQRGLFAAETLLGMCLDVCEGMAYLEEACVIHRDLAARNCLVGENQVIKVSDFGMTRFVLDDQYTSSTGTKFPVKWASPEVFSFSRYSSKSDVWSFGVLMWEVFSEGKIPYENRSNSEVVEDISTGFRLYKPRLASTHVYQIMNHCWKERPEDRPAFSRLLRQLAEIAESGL
Description: ADP-Glo ITK Kinase enzyme system inhibitory activity. In kind it is biochemical. Particulars: ADP-Glo kit (Promega), ATP 25 uM, duplicate; read-out: inhibitory activity against ITK (ITK IC50). The method, then: as §1
In addition, the inhibitory activity against ITK was evaluated using ‘ADP-GIo™+ITK Kinase enzyme system’ kit (Promega Corporation). In a white 96-well plate, 10 ? of ITK enzyme prepared so as to have a final concentration of 4 ng/ ? was mixed with 5 ? of compounds having a final concentration of 1 uM in the case of evaluating a single concentration of compound and a concentration of 1000, 200, 40, 8, 1.6 and 0.32 nM in the case of IC50 evaluation, and then reacted at room temperature for 15 minutes. To the plate on which reactions were completed, 5 ul of substrate and 5 ? of ATP prepared so as to have a final concentration of 25 uM were added and then allowed to react at 30° C. for 1 hour. All wells of the plate on which reactions were completed were treated with 25 ? of ADP-Glo™ reagent and then allowed to react at 30° C. for 40 minutes. […] For the plate on which all reactions were completed, luminescence was measured and the results were calculated. Evaluation was carried out in duplicate, and negative control and positive control were calculated depending on whether or not the enzyme was added without treatment of the compound. The IC50 was calculated based on the calculated values.

Structures are written as SMILES.

T1 sequence (Q06187 whole entry): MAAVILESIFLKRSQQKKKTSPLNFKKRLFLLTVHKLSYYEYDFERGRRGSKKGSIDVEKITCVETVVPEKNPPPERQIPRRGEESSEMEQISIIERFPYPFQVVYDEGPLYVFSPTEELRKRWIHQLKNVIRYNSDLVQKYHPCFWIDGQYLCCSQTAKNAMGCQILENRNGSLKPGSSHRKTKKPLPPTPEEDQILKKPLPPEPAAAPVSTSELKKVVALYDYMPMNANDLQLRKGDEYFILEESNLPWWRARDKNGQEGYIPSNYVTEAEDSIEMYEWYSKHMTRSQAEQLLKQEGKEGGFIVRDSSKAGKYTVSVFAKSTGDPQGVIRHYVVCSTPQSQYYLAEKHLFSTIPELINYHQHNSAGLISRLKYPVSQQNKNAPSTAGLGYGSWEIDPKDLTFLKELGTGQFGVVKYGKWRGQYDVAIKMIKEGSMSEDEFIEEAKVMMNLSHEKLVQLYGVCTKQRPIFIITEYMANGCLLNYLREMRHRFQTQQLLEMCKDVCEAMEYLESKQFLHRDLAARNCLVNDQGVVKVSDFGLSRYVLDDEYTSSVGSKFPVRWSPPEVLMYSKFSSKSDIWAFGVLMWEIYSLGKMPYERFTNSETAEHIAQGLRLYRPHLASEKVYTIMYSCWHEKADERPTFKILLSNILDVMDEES

Take `C=CC(=O)N1CCC[C@H](Nc2cc(CN3CCOCC3)cc(Nc3ncc(C)s3)n2)C1` [Chemical Formula 1, (S)-1-(3-((6-((5-methylthiazol-2-yl)amino)-4-(morpholinomethyl)pyridin-2-yl)amino)piperidin-1-yl)prop-2-en-1-one]: the IC50 lay in the range of 0.4 to 1.4 nM in assay [1] and 1 to 1.7 nM in assay [2].
